Assay results from patent US20090156620A1, “[4-(6-FLUORO-7-METHYLAMINO-2,4-DIOXO-1,4-DIHYDRO-2H-QUINAZOLIN-3-YL)-PHENYL]-5-CHLORO-THIOPHEN-2-YL-SULFONYLUREA SALTS, FORMS AND METHODS RELATED THERETO” (Portola Pharmaceuticals, Inc., priority 2007, published 2009).
“And” between values parts separate entries of the source, which are not always exact repeats. Identical values can stand only once. Like-named read-outs stand apart in the source and are kept apart here.

What was measured:
[1] = gravimetric vapour sorption (GVS); format: physicochemical; settings: for GVS: Total weight change 0-90% RH: 25° C.; for GVS: XRPD post GVS: wrapped cells read: shows new form / matches stability samples / shows no change
Description: Sorption isotherms were obtained using a Hiden IGASorp moisture sorption analyser, controlled by CFRSorp software. The sample temperature was maintained at 25° C. by a Huber re-circulating water bath. The humidity was controlled by mixing streams of dry and wet nitrogen, with a total flow rate of 250 ml.min^−1. […] (typical room conditions). A moisture sorption isotherm was performed as outlined below (2 scans giving 1 complete cycle). […] The software uses a least squares minimisation procedure together with a model of the mass relaxation, to predict an asymptotic value. […] The minimum equilibration time was set to 1 hour and the maximum to 4 hours. The sample was recovered after completion of the isotherm and re-analysed by XRPD.

[2] = solid form stability on storage at elevated temperature/humidity, by XRPD; format: physicochemical; settings: for Stability: further changes / Stability: XRPD; for Stability: storage at 40° C./75% RH, days as in the value
Description: To 20 mg of [4-(6-fluoro-7-methylamino-2,4-dioxo-1,4-dihydro-2H-quinazolin-3-yl)-phenyl]-5-chloro-thiophen-2-yl-sulfonylurea in 3 mL of the various solvents, was added 1.1 eq. of the base in 1 mL solvent. The mixture was shaken for 2 hours and the solutions were left to evaporate down to half their volume to try to precipitate out the salt. […] Oils/emulsions and opaque liquids were left to maturate at 50° C./ambient in an 8 hour cycles for several weeks. […] Solid samples (crystalline and amorphous) were then filtered, dried and then analyzed to judge their purity, crystallinity and stability. Solids were analysed by ^1H NMR to confirm salt formation and analyzed by ion chromatography and TGA to obtain the stoichiometry of the salt.

[3] = for Aqueous solubility**: aqueous thermodynamic solubility, 25° C., 24 hours, expressed as free base equivalents, 100 mg scale-up samples
Description: The suspension was then filtered through a glass fibre C filter into a 96 well plate. […] Quantitation was by HPLC with reference to a standard solution of approximately 0.1 mg.ml^−1. in DMSO. Different volumes of the standard, diluted and undiluted sample solutions were injected.
If there was sufficient solid in the filter plate, the XRPD pattern was collected.

[4] = after a further 10 days at 60° C./75% RH
[5] = a further 4 days at 60° C./75% RH (figure legend)
[6] = storage, time not stated (figure legend)

[4-(6-fluoro-7-methylamino-2,4-dioxo-1,4-dihydro-2H-quinazolin-3-yl)-phenyl]-5-chloro-thiophen-2-yl-sulfonylurea calcium salt [Calcium acetate]
GVS: Total weight change 0-90% RH [1]: 13 wt %, mostly 80-90% RH,
GVS: XRPD post GVS [1]: XRPD post GVS matches
stability by XRPD ([2]; 3 days at 40° C./75% RH): remains stable
Stability: further changes [2, 4]: No changes
Stability [2]: No changes after 3 days
stability by XRPD [2, 5]: remains stable

[4-(6-fluoro-7-methylamino-2,4-dioxo-1,4-dihydro-2H-quinazolin-3-yl)-phenyl]-5-chloro-thiophen-2-yl-sulfonylurea tromethamine salt
GVS: Total weight change 0-90% RH [1]: 4.1 wt %, little hysteresis,
GVS: XRPD post GVS [1]: XRPD post GVS matches
stability by XRPD ([2]; 3 days at 40° C./75% RH): some subtle changes
Stability: further changes [2, 4]: at 40° C./75% RH but no
Stability [2]: Some changes after 3 days
stability by XRPD [2, 5]: no further changes

CNc1cc2[nH]c(=O)n(-c3ccc(NC(=O)NS(=O)(=O)c4ccc(Cl)s4)cc3)c(=O)c2cc1F.[K] [Potassium hydroxide, [4-(6-fluoro-7-methylamino-2,4-dioxo-1,4-dihydro-2H-quinazolin-3-yl)-phenyl]-5-chloro-thiophen-2-yl-sulfonylurea potassium salt]
Aqueous solubility** [3]: 2700 µg/mL
stability with respect to 40° C./75% RH by XRPD [2]: converts to an amorphous phase

CNc1cc2[nH]c(=O)n(-c3ccc(NC(=O)NS(=O)(=O)c4ccc(Cl)s4)cc3)c(=O)c2cc1F.N [ammonium salt (form A), [4-(6-fluoro-7-methylamino-2,4-dioxo-1,4-dihydro-2H-quinazolin-3-yl)-phenyl]-5-chloro-thiophen-2-yl-sulfonylurea ammonium salt]
stability with respect to 40° C./75% RH by XRPD [2, 6]: improvements in crystallinity

CNc1cc2[nH]c(=O)n(-c3ccc(NC(=O)NS(=O)(=O)c4ccc(Cl)s4)cc3)c(=O)c2cc1F.[Na] [Sodium hydroxide, [4-(6-fluoro-7-methylamino-2,4-dioxo-1,4-dihydro-2H-quinazolin-3-yl)-phenyl]-5-chloro-thiophen-2-yl-sulfonylurea sodium salt]
Stability ([2]; sodium salt): Amorphous after 3 days at
stability with respect to 40° C./75% RH by XRPD [2, 6]: converts to an amorphous phase

CNc1cc2[nH]c(=O)n(-c3ccc(NC(=O)NS(=O)(=O)c4ccc(Cl)s4)cc3)c(=O)c2cc1F.[Na] [Sodium Ethoxide, [4-(6-fluoro-7-methylamino-2,4-dioxo-1,4-dihydro-2H-quinazolin-3-yl)-phenyl]-5-chloro-thiophen-2-yl-sulfonylurea sodium salt]
Aqueous solubility** [3]: 7700 µg/mL
GVS: Total weight change 0-90% RH [1]: 8.8 wt %, little hysteresis,
GVS: XRPD post GVS [1]: XRPD post GVS shows new
Stability: further changes ([2]; after 10 days at 40° C./75% RH): at 40° C./75% RH (no
Stability ([2]; sodium salt): Some changes after 2 days

CNc1cc2[nH]c(=O)n(-c3ccc(NC(=O)NS(=O)(=O)c4ccc(Cl)s4)cc3)c(=O)c2cc1F.[K] [form C, [4-(6-fluoro-7-methylamino-2,4-dioxo-1,4-dihydro-2H-quinazolin-3-yl)-phenyl]-5-chloro-thiophen-2-yl-sulfonylurea potassium salt]
pH ([3]; pH of the suspension in the solubility measurement, potassium salt): 8.7 and 8.8
Thermodynamic solubility in water ([3]; water): 4500 µg/mL
XRPD after the GVS experiment [1]: reduced in crystallinity
